US4060526A, “1-Heterocyclic alkyl-1,2,3,4-tetrahydroquinazolinones and analgesic intermediates thereof” (priority 1976, dated 1977)

Tests used:
[1] = system: intestinal motility; experiment: gastrointestinal motility suppression (Brittain & Collier, modified), charcoal; type: in vivo; settings: mice, words
[2] = system: isolated guinea pig ileum (Acetylcholine); experiment: isolated guinea pig ileum screen, block of acetylcholine
[3] = system: metrazol induced convulsions; experiment: anticonvulsant activity, pentylenetetrazol (Metrazol) convulsions; type: in vivo; settings: mice, oral; words
[4] = in vivo; set-up: species or system mice, rats, cats and monkeys
Description: (§1) A tranquil sedation has been observed in mice, rats, cats and monkeys following administration of these compounds in doses exceeding those that are required for analgesia. In addition further indirect evidence for tranquilizer activity has been obtained by application of a method described by Witkin et al., J. Pharmacol, and Exp. Ther. 126:330 (1959)

[5] = system: isolated guinea pig ileum (Histamine); experiment: isolated guinea pig ileum screen, block of histamine (antihistaminic)
Description: Contractions were elicited by histamine phosphate. The concentration of compound required to block these contractions when added to the tissue bath prior to introduction of histamine is taken as evidence of antihistaminic action.

[6] = system: morphine analgesia; experiment: antagonism of morphine analgesia (Harris & Pearson, modified D'Amour & Smith); type: in vivo; settings: rats; words
Experimental: (§2) The compounds of this invention were tested for their ability to antagonize narcotic analgesics by two different tests. […] Another test used for narcotic antagonist activity was published by Harris & Pearson. This test is modification of the D'Amour & Smith method.
(§3) In the original method the time required for rats to flick their tails following application of a heat stimulus is taken as a measure of analgesic potency.

[7] = system: phenylbenzoquinone writhing; experiment: phenylbenzoquinone writhing test, mouse; type: in vivo
Experimental: (§7) In addition to the hot plate method, the writhing test described by Sigmund et al., Soc. Exp. Biol. and Med. 95:729 (1957) has been applied in both rats and mice as further indication of analgesics. […] The stimulus of intraperitoneal injection of phenylbenzoquinone results in a writhing syndrome characterized by periodic twisting and stretching of the body with extension of the hind legs. […] The dose of compound protecting 50% of the animals is determined and expressed as the ED50. Ten animals are used at each dose level.

[8] = phenylbenzoquinone writhing test, mouse; type: in vivo; settings: mouse, in vivo, po
Experimental: as §7

[9] = system: heat stimulus; experiment: mouse hot plate test (Eddy and Leimbach, modified); settings: for ED50: Mus musculus, read-out: Hot Plate ED50
[10] = mouse hot plate test (Eddy and Leimbach, modified); settings: mouse, in vivo, LD50 /ED50 H.P.
[11] = system: phenylbenzoquinone writhing; experiment: phenylbenzoquinone writhing test, rat; type: in vivo
Description: (§4) […]. […] Ten animals are used at each dose level.

[12] = phenylbenzoquinone writhing test, rat; type: in vivo; settings: rat, in vivo, po
Description: as §4

[13] = system: heat stimulus; experiment: D'Amour Smith Rat Tail Flick; type: in vivo; settings: Rattus norvegicus, po; read-out: D'Amour Smith Rat Tail Flick ED50
Description: as §3

[14] = in vivo; settings: mouse
[15] = analgesic activity and general pharmacology, conventional testing methods; type: in vivo; settings: words
Description: Ten animals are used for each dose level.
Ten animals are used at each dose level.

[16] = solubility; type: physicochemical; settings: words
[17] = hypothermic effect, rectal temperature; type: in vivo; settings: mice; words
Experimental: Rectal temperatures were recorded periodically in mice following administration of 740-222 by oral route.

[18] = in vivo; settings: for LD50 at 48 h: read-out: LD50 (48 hr)
[19] = acute toxicity, rat; settings: in vivo, sc; Rat s.c.; preliminary result
Experimental: (§5) Compounds were administered in 2% clearjel as a suspension except in
(§6) Toxicities have only been run with male animals to date.

[20] = acute toxicity, cat; settings: in vivo
Experimental: as §5, §6

[21] = system: pinna reflex, corneal reflex; experiment: pinna / corneal reflex test (Witkin et al.), tranquilizer activity; type: in vivo, mouse
Description: as §1
This test is based upon observations that the pinna reflex of the mouse is blocked at relatively low doses of major tranquilizer drugs whereas very high doses are needed to block the corneal reflex. A ratio of ED50 corneal/ED50 pinna exceeding unity is taken as evidence of tranquilizer type action. […].

[22] = system: oxymorphone induced mydriasis; experiment: antagonism of oxymorphone induced mydriasis; type: in vivo, mice; settings: words
Experimental: as §2

In the case of `O=C1NC(c2ccccc2)N(CCN2CCN(c3ccccc3)CC2)c2ccccc21` (stereo not shown) [Example II, 1-[2-(1-Phenyl-4-piperazinyl)ethyl]-2-phenyl-1,2,3,4-tetrahydro-4-quinazolinone], the “suppression of intestinal motility” value [1] is reported as “effective in suppressing intestinal motility in mice”, the “suppression of intestinal motility” value ([1]; listed as 740-222) is reported as “reduces gut motility” and the “Amount to produce a 50% block of Acetylcholine” value [2] is reported as 1000 micrograms. For the same molecule, the “antagonism of metrazol induced convulsions” value [3] was “able to antagonize these metrazol induced convulsions in mice”, the selectivity ratio [4] was roughly 10 and the “Amount to produce a 50% block of Histamine” value ([5]; isolated guinea pig ileum, 37° C.) was 0.5 micrograms. The “antihistaminic activity compared with diphenhydramine” value ([5]; words) was “about the same activity as the standard antihistaminic diphenhydramine”, the “antagonism of morphine analgesia” value [6] was “not effective by the subcutaneous route” and the “activity relative to morphine, writhing test” value ([7]; mice) was “approximately one third”. The ED50 ([7]; po, Mouse p.o.) was 11 mg/kg, the selectivity ratio [8] was 9 and the selectivity ratio ([8]; Mouse p.o., read-out: LD50 /ED50 Writhing) was greater than 91. For the same molecule, the ED50 ([9]; ip) was 52 mg/kg, the ED50 ([9]; po) was 20 mg/kg and the ED50 ([9]; sc) was greater than 562 mg/kg. For the same molecule, the “analgesic activity compared with codeine, hot plate” value ([9]; mice, oral, words) was “of the same order as codeine”, the “analgesic activity compared with morphine, hot plate” value ([9]; mice, oral, words) was “slightly less than morphine” and the selectivity ratio ([10]; ip, Mouse i.p.) was greater than 17. For the same molecule, the selectivity ratio ([10]; po, Mouse p.o.) was greater than 50, the ED50 ([11]; Rattus norvegicus, rats, oral, read-out: dose at which writhing syndrome is 50% blocked) was 10 mg/kg and the ED50 ([11]; po, Rat p.o., read-out: Writhing ED50) was 14 mg/kg. The selectivity ratio [12] was 7.1, the selectivity ratio ([12]; Rat p.o., read-out: LD50 /ED50 Writhing) was 71 and the ED50 [13] was greater than 100 mg/kg. For the same molecule, the selectivity ratio ([14]; ip) was 3.4, the selectivity ratio ([14]; po) was 5 and the “oral versus parenteral analgesic activity” value [15] was “more active by the oral than the parenteral route”. For the same molecule, the solubility [16] was “low solubility”, the hypothermic effect [17] was “effectively reduced body temperature in normal mice” and the LD50 at 48 h ([18]; ip, Mouse i.p.) was greater than 2500 mg/kg. The LD50 ([18]; mouse, mice, all routes tested, read-out: acute toxicity) was greater than 1000 mg/kg, the selectivity ratio ([18]; mouse, oral route, read-out: therapeutic index (lethal dose to effective dose)) was greater than 300 and the LD50 at 48 h ([18]; po, Mouse p.o.) was greater than 10000 mg/kg. It also gave an LD50 at 48 h ([18]; sc, Mouse s.c.) greater than 1000 mg/kg, an LD50 at 48 h [19] greater than 1000 mg/kg and an LD50 at 48 h ([20]; ip, Cat i.p., preliminary result (740-222)) greater than 1000 mg/kg. The LD50 at 48 h ([20]; po, Cat p.o., preliminary result) was greater than 1000 mg/kg, the “ratio of ED50 corneal/ED50 pinna” value ([21]; mouse, exceeding unity = tranquilizer type action) was “greater than 10” and the “tranquilizer classification from corneal/pinna ratio” value ([21]; words) was “classified as possessing tranquilizer activity”. The “antagonism of oxymorphone induced mydriasis” value [22] was “slight antagonism of oxymorphone induced mydriasis in mice by the intraperiteneal route only”.
